Entries after “also recorded” stand apart in the source; their conditions may differ. Counter-ions that a name gives are not always drawn.
Assays:
[1] = Stability of 5 kg lot of Form III at 25° C.±2° C., 60% RH±5% RH; format: physicochemical; settings: stored at about 25° C. and about 60% RH, three months
Description: Example 6. Stability of 5 kg Lot of Form III at 25° C.±2° C., 60% RH±5% RH
These properties are advantageous for use in clinical trials or clinical use of the compound.

[2] = Stability of 0.1 kg lot of Form III under ambient conditions (15° C.-25° C., ambient RH); format: physicochemical; settings: 12 months / one year
Description: Example 8. Stability of 0.1 kg Lot of Form III
Additional stability studies were performed for smaller lots of Compound A Form III. These studies were performed in stability chambers set to 25° C. and 60% RH, 40° C. and 75% RH for up to 8 weeks. In other embodiments the studies can be performed for up to 4 weeks, for up to 2 weeks and for one week. The stability studies were also performed under ambient conditions, 15-25° C. with no control over the humidity.

[3] = Stability of 5 kg lot of Form III at 40° C.±2° C., 75% RH±5% RH; format: physicochemical; settings: 40° C. and 75% RH, three months
Description: Example 7. Stability of 5 kg Lot of Form III at 40° C.±2° C., 75% RH±5% RH
Further studies on the stability of Compound A Form III were conducted at elevated temperature and humidity. These conditions are less desirable for the storage of active pharmaceutical ingredients and may lead to accelerated degradation.

[4] = tested on: SARS-CoV-2; settings: cited from earlier work
[5] = tested on: HCV; settings: non-cirrhotic and cirrhotic HCV-infected patients, single and multiple doses; cited from earlier work
[6] = clinical trials; cited from earlier work
[7] = in vivo; cited from earlier work

CNc1nc(N)nc2c1ncn2[C@@H]1O[C@H](CO[P@@](=O)(N[C@@H](C)C(=O)OC(C)C)Oc2ccccc2)[C@@H](O)[C@@]1(C)F [Compound A Form III, hemi-sulfate salt of isopropyl ((S)-(((2R,3R,4R,5R)-5-(2-amino-6-(methylamino)-9H-purin-9-yl)-4-fluoro-3-hydroxy-4-methyltetrahydrofuran-2-yl)methoxy)(phenoxy)phosphoryl)-L-alaninate]
Absorption of water from the atmosphere upon storage [1]: does not appreciably absorb water
Degradation measured by HPLC-UV [1]: no measurable degradation
Decrease in purity [2]: little or no decrease; also recorded: no measurable decrease in purity
Degradation (decrease in purity, generation of impurities) [3]: no measurable decrease in purity or generation of impurities; also recorded: no measurable degradation

CNc1nc(N)nc2c1ncn2[C@@H]1O[C@H](CO[P@@](=O)(N[C@@H](C)C(=O)OC(C)C)Oc2ccccc2)[C@@H](O)[C@@]1(C)F [Compound A, hemi-sulfate salt of isopropyl ((S)-(((2R,3R,4R,5R)-5-(2-amino-6-(methylamino)-9H-purin-9-yl)-4-fluoro-3-hydroxy-4-methyltetrahydrofuran-2-yl)methoxy)(phenoxy)phosphoryl)-L-alaninate]
Potency against SARS-CoV-2 [4]: potent
Antiviral reduction in HCV-infected cohorts [5]: significant antiviral reduction
Drug related serious adverse events [6]: no drug related serious adverse events observed
Tissue concentration [7]: disproportionately concentrate in the lung and the liver

From patent US12686697B2, “Advantageous morphic form of AT-527 hemi-sulfate salt” (Atea Pharmaceuticals, Inc., priority 2021, dated 2026)
